The values that follow come from patent publication US9188595B2, “Alzheimer's disease diagnosis based on mitogen-activated protein kinase phosphorylation” (Blanchett Rockefeller Neurosciences Institute, priority 2001, dated 2015).

The test system of one experiment is Erk1/2. The experiment can be described thus: BK-stimulated Erk1/2 phosphorylation in skin fibroblasts (Western blot, normalized to total Erk1/2). Format: cell-based, human. The conditions noted are these: 10 nM BK 5 min. The procedure: Banked AC and AD fibroblasts were grown to 80-100% confluence before they were “starved” in a serum-free DMEM overnight. Cells were treated with 10 nM BK at 37° C. for different intervals to establish a time course for BK effects. The same volume of PBS was added to a control flask of cells of each line. The reaction was terminated by removing the medium, rapidly rinsing the cells with pre-cooled PBS, pH 7.4, and transferring the flask onto dry ice/ethanol.
(§1) For inhibition studies, cells were preincubated with the following concentration of inhibitor at 37° C. for the intervals indicated: 2ABP (50 μM for 30 min); PP1 (10 μM for 15 min); Ly294002 (5 μM for 15 min); and BiSM-1 (5 μM for 15 min). A parallel control flask was incubated with an identical volume of DMSO vehicle. At the end of this incubation, the same inhibitor at the indicated concentration was added and followed immediately by BK to a final concentration of 10 nM. BK (10 nM) was also added to DMSO controls. Basal controls were cells to which neither BK nor inhibitors were added. After a 5-min incubation at 37° C., the reaction was terminated as above.
Cell lysates were prepared from cells of the various groups. Flasks were moved from dry ice/ethanol to ice water. Each flask received 1 ml of lysis buffer (10 mM Tris pH 7.4, 150 mM NaCl, 1 mM EDTA, 1 mM EGTA, pH 8, 0.5% NP-40, 1% Triton X-100, 1% protease inhibitor cocktail (Sigma), 1% cocktail of serine/threonine (Ser/Thr) phosphatase inhibitor and tyrosine (Tyr) phosphatase inhibitor (Sigma). After rocking on an end-to-end shaker in a cold room for 30 min, cells were collected from each flask with a cell scraper. […]
Cell lysates were boiled in an equal volume of 2× SDS-sample buffer for 10 min. […] Phosphorylated Erk1/2 was detected with anti-phospho-Erk1/2 antibody using the SuperSignal ECL detection kit. […]
Signals from phosphorylated and nonphosphorylated Erk1/2 (or CREB) were scanned with a Fuji film LAS-1000 Plus scanner. The mean optical density of each protein band was measured using NIH Image software. […]

Another experiment relates to CREB. The experiment can be described thus: BK-stimulated CREB phosphorylation (Ser133) and total CREB in skin fibroblasts (Western blot). Format: cell-based, human. The note with it: 10 nM BK 10 min; for Effect on expression of the CREB protein: 10 μM for 15 min. The procedure:
FIGS. 5A, 5B1, 5B2, 5C1 and 5C2. Changes in phosphorylation of, and amounts of CREB after BK stimulation. AC and AD cells were treated with 10 nM BK for 5 or 10 min. Phosphorylated CREB (P-CREB) was measured using a anti-phospho-CREB-Serl33 antibody on Western blots. The mean densities of P-CREB were normalized against the total amount of CREB measured using an anti-“regular CREB” antibody and subjected to statistic analyses.
FIGS. 6A1, 6A2, 6B1, 6B2, 6C1 and 6C2. Effects of different inhibitors on BK-stimulated phosphorylation of CREB. AC and AD cells were preincubated at 37° C. for 15 min with 5 μM BiSM-1 (FIG. 6A), 10 μM PP1 (FIG. 6B), or 5 μM Ly294002 (FIG. 6C) before incubation with 10 nM BK for 10 min Nointalization was performed as with FIGS. 5A-5C and statistical significance of differences were evaluated by 2-way ANOVA. **p<0.0001; *p<0.05.
as §1
CREB was detected using analogous methods.
Signals from phosphorylated and nonphosphorylated Erk1/2 (or CREB) were scanned with a Fuji film LAS-1000 Plus scanner. The mean optical density of each protein band was measured using NIH Image software. Values from the phosph-Erk1/2 signals were normalized respectively against the total signal of Erk1/2. After normalization, data from treated cells was converted to a percentage of the basal control and subjected to statistical analyses.

Where [1] appears, read: AC and AD cells, preincubation 10 μM for 15 min.

For `Cc1ccc(-c2nn(C(C)(C)C)c3ncnc(N)c23)cc1` [PP1], in the experiment with Erk1/2 (setting [1]), the “Effect on BK-induced Erk1/2 phosphorylation” value is listed as “completely inhibited”. Further, the “Effect on BK-stimulated CREB phosphorylation” value in the experiment on CREB (setting [1]) is “inhibited”. The “Effect on expression of the CREB protein” value in the experiment on CREB (AD cells) is reported as “not observed”; with CREB (control (AC) cells), “increased expression of the CREB protein”.
As for `O=c1cc(N2CCOCC2)oc2c(-c3ccccc3)cccc12` [LY294002], the “Effect on BK-induced Erk1/2 phosphorylation” value in the experiment on Erk1/2 (AD cells, preincubation 5 μM for 15 min) was “failed to inhibit”.
Regarding `CN(C)CCCn1cc(C2=C(c3c[nH]c4ccccc34)C(=O)NC2=O)c2ccccc21` [BiSM-1, bisindolylmaleimide-1], the “Effect on BK-induced phosphorylation of Erk1/2” value in the experiment on Erk1/2 (both AC and AD cells, preincubation 5 μM for 15 min) is recorded as “abolished”. Further, the “Effect on BK-stimulated CREB phosphorylation” value in the experiment with CREB (AC and AD cells (no group effect), preincubation 5 μM for 15 min) was “completely abolished”.
